According to PubChem BioAssay AID1919004 (Molecular Pharmacology Branch, DTP, NCI, 2023):
One block for each compound: values may come before it.

Test system: 883617-216-R-J1-PDC complex spheroids, growth, % test/control
Test: Anticancer human tumor 883617-216-R-J1-PDC patient-derived bladder carcinoma cell line growth inhibition [AhR]
Conditions: for IC50: curve of first compound; for viability, T/C: stronger effect = lower value
How it was run: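 Complex tumor spheroids co-cultured with HUVEC and human MSC stroma; AhR antagonists tested in combination with standard-of-care and investigational agents. Top concentration at or near clinical Cmax (else 10 microM), half-log dilutions; growth expressed as percent test/control.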

[1] = second compound 0.1 µM, first compound 0.0316 µM
[2] = second compound 0.1 µM, first compound 0.1 µM
[3] = second compound 0.1 µM, first compound 0.316 µM
[4] = second compound 0.1 µM, first compound 1 µM
[5] = second compound 0.1 µM, first compound 3.16 µM
[6] = second compound 0.1 µM, first compound 10 µM
[7] = second compound 0.316 µM, first compound 0.0316 µM
[8] = second compound 0.316 µM, first compound 0.1 µM
[9] = second compound 0.316 µM, first compound 0.316 µM
[10] = second compound 0.316 µM, first compound 1 µM
[11] = second compound 0.316 µM, first compound 3.16 µM
[12] = second compound 0.316 µM, first compound 10 µM
[13] = second compound 1 µM, first compound 0.0316 µM
[14] = second compound 1 µM, first compound 0.1 µM
[15] = second compound 1 µM, first compound 0.316 µM
[16] = second compound 1 µM, first compound 1 µM
[17] = second compound 1 µM, first compound 3.16 µM
[18] = second compound 1 µM, first compound 10 µM
[19] = second compound 3.16 µM, first compound 0.0316 µM
[20] = second compound 3.16 µM, first compound 0.1 µM
[21] = second compound 3.16 µM, first compound 0.316 µM
[22] = second compound 3.16 µM, first compound 1 µM
[23] = second compound 3.16 µM, first compound 3.16 µM
[24] = second compound 3.16 µM, first compound 10 µM
[25] = second compound 10 µM, first compound 0.0316 µM
[26] = second compound 10 µM, first compound 0.1 µM
[27] = second compound 10 µM, first compound 0.316 µM
[28] = second compound 10 µM, first compound 1 µM
[29] = second compound 10 µM, first compound 3.16 µM
[30] = second compound 10 µM, first compound 10 µM
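Note: exposure lasted 7 days after dosing on day 3 of spheroid growth.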

IC50 (second compound 0.1 µM): > 10000 nM
IC50 (second compound 0.316 µM): > 10000 nM
IC50 (second compound 1 µM): > 10000 nM
IC50 (second compound 3.16 µM): > 10000 nM
IC50 (second compound 10 µM): > 10000 nM
Compound: COc1cc(Nc2ncc3c(n2)-c2ccc(Cl)cc2C(c2c(F)cccc2OC)=NC3)ccc1C(=O)O + Cc1cncc(-c2nc(NCCc3c[nH]c4ccccc34)c3ncn(C(C)C)c3n2)c1
viability, T/C [1]: 83.8%
viability, T/C [2]: 86.9%
viability, T/C [3]: 81.7%
viability, T/C [4]: 72.5%
viability, T/C [5]: 73.8%
viability, T/C [6]: 61.5%
viability, T/C [7]: 86.3%
viability, T/C [8]: 83.1%
viability, T/C [9]: 81.7%
viability, T/C [10]: 72.2%
viability, T/C [11]: 73.6%
viability, T/C [12]: 65.5%
viability, T/C [13]: 91.8%
viability, T/C [14]: 88.6%
viability, T/C [15]: 75.3%
viability, T/C [16]: 82.8%
viability, T/C [17]: 80%
viability, T/C [18]: 70.8%
viability, T/C [19]: 92.2%
viability, T/C [20]: 98%
viability, T/C [21]: 102%
viability, T/C [22]: 81.8%
viability, T/C [23]: 81.2%
viability, T/C [24]: 72.7%
viability, T/C [25]: 54.4%
viability, T/C [26]: 55%
viability, T/C [27]: 53.1%
viability, T/C [28]: 51.4%
viability, T/C [29]: 56.4%
viability, T/C [30]: 71.2%

IC50 (second compound 0.1 µM): 9.01 nM
IC50 (second compound 0.316 µM): 8.45 nM
IC50 (second compound 1 µM): 7.37 nM
IC50 (second compound 3.16 µM): 6.62 nM
IC50 (second compound 10 µM): 3.48 nM
Compound: CC(C)CC(NC(=O)C(Cc1ccccc1)NC(=O)c1cnccn1)B(O)O (stereo not given) + Cc1cncc(-c2nc(NCCc3c[nH]c4ccccc34)c3ncn(C(C)C)c3n2)c1
viability, T/C (second compound 0.1 µM, first compound 0.000949 µM): 90.2%
viability, T/C (second compound 0.1 µM, first compound 0.003 µM): 93.5%
viability, T/C (second compound 0.1 µM, first compound 0.00949 µM): 48.1%
viability, T/C (second compound 0.1 µM, first compound 0.03 µM): 0.14%
viability, T/C (second compound 0.1 µM, first compound 0.0949 µM): 0.1%
viability, T/C (second compound 0.1 µM, first compound 0.3 µM): 0.23%
viability, T/C (second compound 0.316 µM, first compound 0.000949 µM): 97.4%
viability, T/C (second compound 0.316 µM, first compound 0.003 µM): 96.1%
viability, T/C (second compound 0.316 µM, first compound 0.00949 µM): 44.8%
viability, T/C (second compound 0.316 µM, first compound 0.03 µM): 0.11%
viability, T/C (second compound 0.316 µM, first compound 0.0949 µM): 0.06%
viability, T/C (second compound 0.316 µM, first compound 0.3 µM): 0.21%
viability, T/C (second compound 1 µM, first compound 0.000949 µM): 111%
viability, T/C (second compound 1 µM, first compound 0.003 µM): 93.9%
viability, T/C (second compound 1 µM, first compound 0.00949 µM): 38.7%
viability, T/C (second compound 1 µM, first compound 0.03 µM): 0.1%
viability, T/C (second compound 1 µM, first compound 0.0949 µM): 0.05%
viability, T/C (second compound 1 µM, first compound 0.3 µM): 0.21%
viability, T/C (second compound 3.16 µM, first compound 0.000949 µM): 105%
viability, T/C (second compound 3.16 µM, first compound 0.003 µM): 111%
viability, T/C (second compound 3.16 µM, first compound 0.00949 µM): 23.6%
viability, T/C (second compound 3.16 µM, first compound 0.03 µM): 0.14%
viability, T/C (second compound 3.16 µM, first compound 0.0949 µM): 0.84%
viability, T/C (second compound 3.16 µM, first compound 0.3 µM): 0.2%
viability, T/C (second compound 10 µM, first compound 0.000949 µM): 61.7%
viability, T/C (second compound 10 µM, first compound 0.003 µM): 57.3%
viability, T/C (second compound 10 µM, first compound 0.00949 µM): 0.3%
viability, T/C (second compound 10 µM, first compound 0.03 µM): 0.24%
viability, T/C (second compound 10 µM, first compound 0.0949 µM): 0.23%
viability, T/C (second compound 10 µM, first compound 0.3 µM): 0.62%

IC50 (second compound 0.1 µM): 2750 nM
IC50 (second compound 0.316 µM): 2990 nM
IC50 (second compound 1 µM): 2790 nM
IC50 (second compound 3.16 µM): 2260 nM
IC50 (second compound 10 µM): < 31.6 nM
Compound: NS(=O)(=O)OCC1CC(n2ccc3c(NC4CCc5ccccc54)ncnc32)CC1O (stereo not given) + Cc1cncc(-c2nc(NCCc3c[nH]c4ccccc34)c3ncn(C(C)C)c3n2)c1
viability, T/C [1]: 118%
viability, T/C [2]: 165%
viability, T/C [3]: 209%
viability, T/C [4]: 131%
viability, T/C [5]: 43.6%
viability, T/C [6]: 29.1%
viability, T/C [7]: 128%
viability, T/C [8]: 164%
viability, T/C [9]: 225%
viability, T/C [10]: 120%
viability, T/C [11]: 44.5%
viability, T/C [12]: 25.9%
viability, T/C [13]: 141%
viability, T/C [14]: 167%
viability, T/C [15]: 212%
viability, T/C [16]: 130%
viability, T/C [17]: 48%
viability, T/C [18]: 30.1%
viability, T/C [19]: 141%
viability, T/C [20]: 179%
viability, T/C [21]: 204%
viability, T/C [22]: 112%
viability, T/C [23]: 33.2%
viability, T/C [24]: 15.4%
viability, T/C [25]: 48.1%
viability, T/C [26]: 50.6%
viability, T/C [27]: 28.6%
viability, T/C [28]: 6.98%
viability, T/C [29]: 4.81%
viability, T/C [30]: 2.51%
